Measurements: PubChem BioAssay AID226 (DTP/NCI, 2004)
Where “and” joins values, the source holds several entries; their conditions need not be identical. Equal entries are not always repeated. Inconclusive results and toxic doses are left out. Rule for the calls: active = survival T/C of 150% or more; inactive = T/C below 125% in these data.

System: B6C3F1 mice, intracerebral ependymoblastoma, median survival T/C
Assay: NCI In Vivo Anticancer Drug Screen. Data for tumor model Ependymoblastoma (intracerebral) in B6C3F1 mice
Details: endpoint: median survival time, higher = longer survival
Method: The antitumor activity of compounds was measured in mice bearing transplantable tumors. Survival or tumor size were measured and the results are expressed as the measurement made in the treated group (T) divided by the measurement made in the vehicle treated control group (C). The tumor model used in this assay is Ependymoblastoma (intracerebral) in B6C3F1 mice

[1] = dose: 8.0 mg/kg/injection, schedule: Q01DX005 (ip), vehicle: Klucel (hydroxypropylcellulose) (HPC)

Measured: T/C

CCCCCC(=O)O[C@]1(C(C)=O)CC[C@H]2[C@@H]3CCC4=CC(=O)CC[C@]4(C)[C@H]3CC[C@@]21C
inactive: [1] 105 % of control | dose: 8.0 mg/kg/injection, schedule: Q01DX005 (ip), vehicle: saline + alcohol 96 % of control | dose: 8.0 mg/kg/injection, schedule: Q01DX005 (ip), vehicle: saline with Tween-80 95 % of control and 105 % of control | dose: 16.0 mg/kg/injection, schedule: Q01DX005 (ip), vehicle: Klucel (hydroxypropylcellulose) (HPC) 106 % of control | dose: 16.0 mg/kg/injection, schedule: Q01DX005 (ip), vehicle: saline + alcohol 106 % of control | dose: 16.0 mg/kg/injection, schedule: Q01DX005 (ip), vehicle: saline with Tween-80 115 % of control and 89 % of control | dose: 32.0 mg/kg/injection, schedule: Q01DX005 (ip), vehicle: Klucel (hydroxypropylcellulose) (HPC) 87 % of control | dose: 32.0 mg/kg/injection, schedule: Q01DX005 (ip), vehicle: saline + alcohol 102 % of control | dose: 32.0 mg/kg/injection, schedule: Q01DX005 (ip), vehicle: saline with Tween-80 98 % of control and 117 % of control | dose: 64.0 mg/kg/injection, schedule: Q01DX005 (ip), vehicle: Klucel (hydroxypropylcellulose) (HPC) 101 % of control | dose: 64.0 mg/kg/injection, schedule: Q01DX005 (ip), vehicle: saline + alcohol 104 % of control | dose: 64.0 mg/kg/injection, schedule: Q01DX005 (ip), vehicle: saline with Tween-80 99 % of control and 105 % of control | dose: 128.0 mg/kg/injection, schedule: Q01DX005 (ip), vehicle: Klucel (hydroxypropylcellulose) (HPC) 86 % of control | dose: 128.0 mg/kg/injection, schedule: Q01DX005 (ip), vehicle: saline + alcohol 102 % of control | dose: 128.0 mg/kg/injection, schedule: Q01DX005 (ip), vehicle: saline with Tween-80 104 % of control and 107 % of control | dose: 256.0 mg/kg/injection, schedule: Q01DX005 (ip), vehicle: Klucel (hydroxypropylcellulose) (HPC) 95 % of control | dose: 256.0 mg/kg/injection, schedule: Q01DX005 (ip), vehicle: saline + alcohol 102 % of control | dose: 256.0 mg/kg/injection, schedule: Q01DX005 (ip), vehicle: saline with Tween-80 98 % of control and 107 % of control | dose: 512.0 mg/kg/injection, schedule: Q01DX005 (ip), vehicle: Klucel (hydroxypropylcellulose) (HPC) 95 % of control | dose: 512.0 mg/kg/injection, schedule: Q01DX005 (ip), vehicle: saline + alcohol 113 % of control | dose: 512.0 mg/kg/injection, schedule: Q01DX005 (ip), vehicle: saline with Tween-80 95 % of control and 105 % of control

O=C1NC2(CCCCC2)C(=O)N1CCN(CCCl)CCCl
inactive: dose: 1.0 mg/kg/injection, schedule: Q01DX005 (ip), vehicle: Klucel (hydroxypropylcellulose) (HPC) 116 % of control | dose: 1.0 mg/kg/injection, schedule: Q01DX005 (ip), vehicle: saline 99 % of control and 103 % of control and 107 % of control | dose: 1.5 mg/kg/injection, schedule: Q01DX005 (ip), vehicle: Klucel (hydroxypropylcellulose) (HPC) 101 % of control | dose: 1.56 mg/kg/injection, schedule: Q01DX005 (ip), vehicle: Klucel (hydroxypropylcellulose) (HPC) 100 % of control | dose: 2.0 mg/kg/injection, schedule: Q01DX005 (ip), vehicle: Klucel (hydroxypropylcellulose) (HPC) 99 % of control | dose: 2.5 mg/kg/injection, schedule: Q01DX005 (ip), vehicle: other 97 % of control | dose: 2.5 mg/kg/injection, schedule: Q01DX005 (ip), vehicle: saline 100 % of control | dose: 3.0 mg/kg/injection, schedule: Q01DX005 (ip), vehicle: Klucel (hydroxypropylcellulose) (HPC) 110 % of control | dose: 3.12 mg/kg/injection, schedule: Q01DX005 (ip), vehicle: Klucel (hydroxypropylcellulose) (HPC) 101 % of control | dose: 4.0 mg/kg/injection, schedule: Q01DX005 (ip), vehicle: Klucel (hydroxypropylcellulose) (HPC) 117 % of control | dose: 5.0 mg/kg/injection, schedule: Q01DX005 (ip), vehicle: other 112 % of control | dose: 5.0 mg/kg/injection, schedule: Q01DX005 (ip), vehicle: saline 98 % of control | dose: 6.0 mg/kg/injection, schedule: Q01DX005 (ip), vehicle: Klucel (hydroxypropylcellulose) (HPC) 111 % of control | dose: 6.0 mg/kg/injection, schedule: Q01DX005 (oral), vehicle: Klucel (hydroxypropylcellulose) (HPC) 105 % of control and 88 % of control | dose: 6.25 mg/kg/injection, schedule: Q01DX005 (ip), vehicle: Klucel (hydroxypropylcellulose) (HPC) 105 % of control | [1] 112 % of control | dose: 10.0 mg/kg/injection, schedule: Q01DX005 (ip), vehicle: saline 98 % of control | dose: 12.0 mg/kg/injection, schedule: Q01DX005 (oral), vehicle: Klucel (hydroxypropylcellulose) (HPC) 87 % of control | dose: 24.0 mg/kg/injection, schedule: Q01DX005 (oral), vehicle: Klucel (hydroxypropylcellulose) (HPC) 92 % of control and 100 % of control | dose: 48.0 mg/kg/injection, schedule: Q01DX005 (oral), vehicle: Klucel (hydroxypropylcellulose) (HPC) 101 % of control | dose: 96.0 mg/kg/injection, schedule: Q01DX005 (oral), vehicle: Klucel (hydroxypropylcellulose) (HPC) 97 % of control
